# Laboratory results as given in publication PMC11354909, “Preclinical Evaluation of Soluble Epoxide Hydrolase Inhibitor AMHDU against Neuropathic Pain” (International Journal of Molecular Sciences, 2024).
# “And” between values parts separate entries of the source, which are not always exact repeats. Equal entries are not always repeated. “Also recorded” adds a separate entry of the source. Where two headings read alike, the source gives them in different places.
# What was measured:
# [1] = test system: pain threshold of inflamed paw, adjuvant inflammation; assay: Randall–Selitto test in adjuvant inflammation (analgesic activity); assay type: in vivo, rat
# [2] = Pharmacokinetic study, intraperitoneal injection; assay type: in vivo, male Swiss–Webster mice
# Procedure: Animal experiments were approved by the Animal Use and Care Committee of University of California, Davis. Compounds were formulated in 5% EtOH, 95% PEG400 at a concentration of 0.25 mg/mL. […] […] For compound detection in plasma, 10 µL whole blood was sampled by tail nick and transferred immediately to 50 µL water containing 0.1% EDTA. Samples were extracted as previously described and stored at −20 °C until analysis. Samples were analysed by LC-MS/MS on an Agilent SL 1200 series LC system (Agilent, Palo Alto, CA, USA) connected to a 4000 Qtrap mass spectrometer (Applied Biosystems Instrument Corporation, Foster City, CA, USA) with Turbo V ion source. Liquid chromatography was performed on a Kinetex R© C18 column (100 × 2.1 mm, 1.7 μm). The mass spectrometer was operated in positive modes with primary MRM scan of 499.377/143.153 and secondary scans of 499.377/149.190 and 499.377/166.204. Peaks were integrated using Analyst software v 1.6.3 (Ab Sciex, Washington, DC, USA) and quantified against a standard curve as previously described.
# [3] = Acute oral toxicity (OECD test No. 423); settings: for Adrenal glands mass ratio to whole body weight / Brain mass ratio to whole body weight / Heart mass ratio to whole body weight / Kidneys mass ratio to whole body weight / Liver mass ratio to whole body weight / Lungs mass ratio to whole body weight / Ovaries mass ratio to whole body weight / Spleen mass ratio to whole body weight / Thymus mass ratio to whole body weight: 2 weeks after single intragastric dose, m ± SD
# Procedure: The acute toxicity of the substance by intragastric administration to female outbred rats was studied; the toxicity class, tolerated, toxic, lethal doses and character of toxic effect were determined according to the OECD test No. 423.
# Experiments were performed on sexually mature laboratory white mongrel female rats, divided into experimental and control groups. Experimental animals were administered the AMHDU substance diluted in 50% dimethyl sulfoxide solution in the recommended GOST 32644-2014 initial dose of 300 mg/kg (n = 6), as well as the maximum dose of 2000 mg/kg (n = 3) in the maximum allowable volume of 20 mL/kg once intra-gastrically. Control animals (n = 6) were injected with dimethyl sulfoxide diluted 1:1 with purified water at volumes identical to those of the experimental animals. The animals were monitored for 2 weeks, continuously for the first 4 h after injection. Routine necropsy of all surviving animals was performed on day 15.
# [4] = biological target: soluble epoxide hydrolase (sEH); parameters: method as in PMID 24685540; settings: slow tight binding sEH inhibitor; cited from earlier work
# rat paw edema model = assay: Freund's adjuvant rat paw edema model (anti-inflammatory activity); assay type: in vivo; settings: for effect on paw edema (reduction of exudative reaction): day 4
# [5] = test system: STZ-rat neuropathic pain model; assay: Tactile allodynia (von Frey) in streptozotocin diabetic polyneuropathy; assay type: in vivo
# Procedure: To evaluate the effect of the compound on the development of neuropathic pain, tactile hyperalgesia was evaluated in diabetic polyneuropathy in rats with 2-week streptozotocin-induced diabetes (35 mg/kg intraperitoneally). Only animals with developed allodynia and hyperalgesia were taken into the experiment, with 50% pain response indices not exceeding 6 g. Groups were formed randomly (n = 6). Tactile allodynia in rats was assessed by registering the pressure at which the animals jerked the right hind paw, avoiding exposure to stimuli of increasing degree. VonFrey hairs, which are 20 monofilaments of nylon filaments of different diameters attached to plastic handles, were applied to the right hind paw in turn from below through the mesh. The comparison drug gabapentin as well as the test compound AMHDU dissolved in 10% DMSO was administered intraperitoneally in 10 mg/kg dose 60 min. before the experiment. An equivalent volume of solvent was administered to control animals. The experiment was started with a monofilament labeled 4.31. If there was no response after 5 incidents of touching, the monofilament was successively changed to the next monofilament with higher strength. […] The 50% threshold of paw retraction during successive increases and decreases in stimulus strength was determined using the UP-AND-DOWN method.
# [6] = individual animals No. 1-4, i.p., table dose 1 mg/kg, 1 mg/kg
structure (smiles),measurement,setting,value
"O=C(NCCCCCCNC(=O)NCC12CC3CC(CC(C3)C1)C2)NCC12CC3CC(CC(C3)C1)C2 [AMHDU, 1,1′-(hexane-1,6-diyl)bis(3-((adamantan-1-yl)methyl)urea)]",effect on pain threshold,[1]; 5 mg/kg i.p. 2 times a day for 4 days,no significant suppression of the pain threshold
same,increase of paw-pulling threshold,[1]; 30 mg/kg i.p. 2 times a day for 4 days,38%
same,analgesic activity compared with reference drugs,"[1]; AMHDU 30 mg/kg i.p. vs celecoxib 10 mg/kg, dexamethasone 5 mg/kg",superior to both dexamethasone and celecoxib
same,compound left in the bloodstream,"[2]; 4 h after injection, i.p. 1.25 mg/kg",none is left in the bloodstream
same,AUC,"[2]; Swiss-Webster, mouse, whole blood, ip, i.p. 1.25 mg/kg, male mice",26 ng·h/mL
same,half-life,"[2]; Swiss-Webster, mouse, whole blood, ip, i.p. 1.25 mg/kg, male mice, read-out: half-life (Thalf)",~0.167 h
same,AUClast,[2]; [6],24 ng·h/mL and 35 ng·h/mL and 31 ng·h/mL and 16 ng·h/mL
same,Cmax,[2]; [6],24.32 ng/mL and 53.00 ng/mL and 31.93 ng/mL and 30.86 ng/mL
same,MRT,[2]; [6],1.51 h and 1.04 h and 1.08 h and 0.55 h
same,Thalf,[2]; [6],0.18 h and 0.16 h and 0.13 h and 0.15 h
same,Tmax,[2]; [6],2.0 h and 0.5 h
same,Thalf,"[2]; m ± SE of 4 mice, i.p.",0.16 ± 0.02 h
same,AUC(0-t),"[2]; male, Swiss-Webster, mouse, whole blood, ip, 1.25 mg/kg, m ± SE of 4 mice",26.4 ± 8.6 ng·h/mL
same,Cmax,"[2]; male, Swiss-Webster, mouse, whole blood, ip, 1.25 mg/kg, m ± SE of 4 mice, i.p., read-out: Cmax",35 ± 12.4 ng/mL
same,MRT,"[2]; male, Swiss-Webster, mouse, whole blood, ip, 1.25 mg/kg, m ± SE of 4 mice, i.p., read-out: MRT",~1 h
same,Tmax,"[2]; male, Swiss-Webster, mouse, whole blood, ip, 1.25 mg/kg, mean of 4 mice, i.p., read-out: Tmax",1 h
same,"Adrenal glands mass ratio, change compared to control group","[3]; 300 mg/kg, 2 weeks",–8.5%
same,"Brain mass ratio, change compared to control group","[3]; 300 mg/kg, 2 weeks",–0.1%
same,"Heart mass ratio, change compared to control group","[3]; 300 mg/kg, 2 weeks",–6.4%
same,"Kidneys mass ratio, change compared to control group","[3]; 300 mg/kg, 2 weeks",–3.1%
same,"Liver mass ratio, change compared to control group","[3]; 300 mg/kg, 2 weeks",2.1%
same,"Lungs mass ratio, change compared to control group","[3]; 300 mg/kg, 2 weeks",–3.5%
same,"Ovaries mass ratio, change compared to control group","[3]; 300 mg/kg, 2 weeks",–1.0%
same,"Spleen mass ratio, change compared to control group","[3]; 300 mg/kg, 2 weeks",0.5%
same,"Thymus mass ratio, change compared to control group","[3]; 300 mg/kg, 2 weeks",–4.1%
same,Adrenal glands mass ratio to whole body weight,[3]; 300 mg/kg,0.04 ± 0.004%
same,Brain mass ratio to whole body weight,[3]; 300 mg/kg,0.72 ± 0.02%
same,Heart mass ratio to whole body weight,[3]; 300 mg/kg,0.33 ± 0.01%
same,Kidneys mass ratio to whole body weight,[3]; 300 mg/kg,0.62 ± 0.02%
same,Liver mass ratio to whole body weight,[3]; 300 mg/kg,3.03 ± 0.12%
same,Lungs mass ratio to whole body weight,[3]; 300 mg/kg,0.60 ± 0.04%
same,Ovaries mass ratio to whole body weight,[3]; 300 mg/kg,0.05 ± 0.003%
same,Spleen mass ratio to whole body weight,[3]; 300 mg/kg,0.48 ± 0.01%
same,Thymus mass ratio to whole body weight,[3]; 300 mg/kg,0.17 ± 0.03%
same,"Adrenal glands mass ratio, change compared to control group","[3]; 2000 mg/kg, 2 weeks",–14.4%
same,"Brain mass ratio, change compared to control group","[3]; 2000 mg/kg, 2 weeks",–0.3%
same,"Heart mass ratio, change compared to control group","[3]; 2000 mg/kg, 2 weeks",–10.4%
same,"Kidneys mass ratio, change compared to control group","[3]; 2000 mg/kg, 2 weeks",0.4%
same,"Liver mass ratio, change compared to control group","[3]; 2000 mg/kg, 2 weeks",–6.4%
same,"Lungs mass ratio, change compared to control group","[3]; 2000 mg/kg, 2 weeks",–10.7%
same,"Ovaries mass ratio, change compared to control group","[3]; 2000 mg/kg, 2 weeks",18.3%
same,"Spleen mass ratio, change compared to control group","[3]; 2000 mg/kg, 2 weeks",–9.9%
same,"Thymus mass ratio, change compared to control group","[3]; 2000 mg/kg, 2 weeks",–11.0%
same,Adrenal glands mass ratio to whole body weight,[3]; 2000 mg/kg,0.03 ± 0.003%
same,Brain mass ratio to whole body weight,[3]; 2000 mg/kg,0.72 ± 0.02%
same,Heart mass ratio to whole body weight,[3]; 2000 mg/kg,0.32 ± 0.01%
same,Kidneys mass ratio to whole body weight,[3]; 2000 mg/kg,0.64 ± 0.03%
same,Liver mass ratio to whole body weight,[3]; 2000 mg/kg,2.77 ± 0.41%
same,Lungs mass ratio to whole body weight,[3]; 2000 mg/kg,0.56 ± 0.03%
same,Ovaries mass ratio to whole body weight,[3]; 2000 mg/kg,0.06 ± 0.01%
same,Spleen mass ratio to whole body weight,[3]; 2000 mg/kg,0.43 ± 0.02%
same,Thymus mass ratio to whole body weight,[3]; 2000 mg/kg,0.16 ± 0.01%
same,necropsy: architectonics of internal organs location,[3]; day 15 after intragastric 300 and 2000 mg/kg,no pathological changes
same,toxicity class according to the GHS classification,"[3]; female, outbred white mongrel, rat, in vivo, 2 weeks",class 5
same,LD50 at 2 weeks,"[3]; female, outbred white mongrel, rat, in vivo, po, LD50 (acute oral toxicity), intragastric, female rats",> 2000 mg/kg
same,LD50 (acute oral toxicity),"[3]; intragastric, female rats",2000 to 5000 mg/kg
same,death in early and distant periods of observation,"[3]; single intragastric limit dose 2000 mg/kg, 2 weeks observation",does not contribute to death
same,IC50,[4],0.5 nM
same,Ki,[4],3.1 nM
same,effect on the volume of the affected limb (paw edema),"rat paw edema model; 5 mg/kg i.p. 2 times a day for 4 days, day 4 after adjuvant",no significant effect
same,reduction of the primary exudative reaction (paw edema),"rat paw edema model; 30 mg/kg i.p. 2 times a day for 4 days, day 4 after adjuvant",no statistically significant reduction
same,anti-inflammatory effect (overall conclusion),rat paw edema model; 5 and 30 mg/kg i.p.,lacks anti-inflammatory activity; also recorded: negligible anti-inflammatory effect
same,analgesic activity compared with gabapentin,[5]; 10 mg/kg i.p. both drugs,comparable to standard of care gabapentin
same,pain threshold relative to the control group,"[5]; 10 mg/kg i.p., 60 min before the experiment",1.5 times
"Cc1ccc(-c2cc(C(F)(F)F)nn2-c2ccc(S(N)(=O)=O)cc2)cc1 [celecoxib, reference compound]",effect on paw edema (reduction of exudative reaction),rat paw edema model; celecoxib 10 mg/kg i.p. 2 times a day for 4 days,51%
"C[C@@H]1C[C@H]2[C@@H]3CCC4=CC(=O)C=C[C@]4(C)[C@@]3(F)[C@@H](O)C[C@]2(C)[C@@]1(O)C(=O)CO [dexamethasone, reference compound]",effect on paw edema (reduction of exudative reaction),rat paw edema model; dexamethasone 5 mg/kg i.p. 2 times a day for 4 days,65%
